The record followed here is patent US20230295096A1, “PYRAZOLE CARBOXAMIDE COMPOUNDS FOR TREATMENT OF HBV” (ASSEMBLY BIOSCIENCES, INC., priority 2020, published 2023).

The structures appear in SMILES notation.

This test has as its system HBV. In words: Viral load production from HepAD38 cells, qPCR of the HBV core sequence in supernatant. In kind it is cell-based. Conditions: Hepatitis B virus, HePAD38, 120 h, HepAD38 cells, 5 days, HBV DNA in supernatant by qPCR; Table 1 ranges; read-out: Activity (viral load lowering EC50). As to the method: HepAD38 cells grown in a T-150 flask (Corning, cat#: 430825) with Growth Medium (DMEM/F12 (1:1) (Hyclone, cat#: SH30023.02), 1X Pen/Strep (Invitrogen, cat#: 15140-122), 10% FBS (Tissue Culture Biologics, cat#: 101), 250 µg/mL G418 (Alfa Aesar, cat#: J62671), 1 µg/mL Tetracycline (Teknova, cat#: T3320)) were detached with 0.25% trypsin-EDTA (Invitrogen, cat#: 25200-056). Tetracycline-free treatment medium (15 mL DMEM/F12 (1:1) 1× Pen/step, with 2% FBS, Tet-system approved (Clontech, cat#: 631106) were then added to mix, transferred into a 50 ml conical tube (Falcon, cat#: 21008-918,) and spun at 1300 rpm for 5 min. Pelleted cells were then re-suspended/washed with 50 mL of 1X DPBS (Invitrogen, cat#: 14190-136) 2 times and 50 mL treatment medium twice. HepAD38 cells were then re-suspended with 10 mL of treatment medium, syringed and counted. Wells of 96-well clear bottom TC plate (Corning, cat#: 3904,) were seeded at 50.000 cells/well in 180 µL of treatment medium, and 20 µL of either 10% DMSO (Sigma, cat#: D4540) as controls or a 10X solution of test compounds in 10% DMSO in treatment media was added for a final compound concentration starting at 10 µM, and plates were incubated in 5% CO2 incubator at 37° C. for 5 days.
Subsequently viral load production was assayed by quantitative PCR (qPCR) of the HBV core sequence. PCR reaction mixture containing forward primers HBV-f 5′-CTGTGCCTTGGGTGGCTTT-3′ (IDT DNA), Reverse primers HBV-r 5′-[…]-3′ (IDT DNA), Fluorescent TaqMan^tm Probes HBV-probe 5′-FAM/AGCTCCAAA/ZEN/[…]/3IABkFQ-3′ (IDT DNA), 10 µL/well of PerfeCTa® qPCR ToughMix® (Quanta Biosciences, Cat#: 95114-05 K), and 6 µL/well of DEPC water (Alfa Aesar, cat#: J62087) was prepared. Four µL of supernatant was added to 16 µL of the reaction mixture in a qPCR plate (Applied Biosytems, Cat#: 4309849), sealed with a film (Applied Biosystems, Cat#: 4311971), centrifuged for a few seconds, and subsequently run on an Applied Biosystems VIIA7. The PCR mixture was incubated at 45° C. for 5 min, then 95° C. for 10 min, followed by 40 cycles of 10 seconds at 95° C. and 20 seconds at 60° C. Viral load was quantified against known HBV DNA standards by using ViiA™ 7 Software. Viral load in the supernatant from wells with treated cells were compared against viral load in supernatant from DMSO control wells (≥ 3 per plate). Cell viability assay was performed with CellTiter-Glo Luminescent Cell Viability Assay (Promega, cat#: G7573) with modification. Mixed appropriate amount of CellTiter-Glo (CTG) 1X DPBS in a 1:1 ratio, added 100 uL of the mixture to each well followed completely removal of all supernatant in each well without touching cell surface. Incubated the plate at room temperature for 10 min on an orbital shaker, and then read the plate with a plate reader (TECAN M1000 or Envision). EC50 or CC50 values were calculated through curve-fitting of the four-parameter nonlinear-logistic-regression model (GraphPad Prism or Dotmatics). CC50 values were all >10 µM.

For orientation: EC50 means the concentration that produces a half-maximal response. Regarding `Cn1nc(C2CC3CC(O)(c4ccc(F)cc4)CC3C2)c(C(=O)Nc2ccc(F)c(C#N)c2)c1N` (stereo not shown) [Example 9, 5-Amino-N-(3-cyano-4-fluorophenyl)-3-(5-(4-fluorophenyl)-5-hydroxyoctahydropentalen-2-yl)-1-methyl-1H-pyrazole-4-carboxamide], the 50% effective concentration (EC50) is less than 0.01 µM.
For the compound `Cn1nc(C2CC3CC(O)(c4ccc(Oc5ccccc5)cc4)CC3C2)c(C(=O)Nc2ccc(F)c(Cl)c2)c1N` (stereo not shown) [Example 10, 5-Amino-N-(3-chloro-4-fluorophenyl)-3-(5-hydroxy-5-(4-phenoxyphenyl)octahydropentalen-2-yl)-1-methyl-1H-pyrazole-4-carboxamide], the concentration for a half-maximal effect (EC50) is less than 0.01 µM.
Next, `Cn1nc(C2CC3CC(O)(c4cc(F)cc(F)c4)CC3C2)c(C(=O)Nc2ccc(F)c(Cl)c2)c1N` (stereo not shown) [Example 11, 5-Amino-N-(3-chloro-4-fluorophenyl)-3-(5-(3,5-difluorophenyl)-5-hydroxyoctahydropentalen-2-yl)-1-methyl-1H-pyrazole-4-carboxamide]: 0.01 to 0.05 µM; `Cn1nc(C2CC3CC(O)(c4ccc(F)c(F)c4)CC3C2)c(C(=O)Nc2ccc(F)c(Cl)c2)c1N` (stereo not shown) [Example 12, 5-Amino-N-(3-chloro-4-fluorophenyl)-3-(5-(3,4-difluorophenyl)-5-hydroxyoctahydropentalen-2-yl)-1-methyl-1H-pyrazole-4-carboxamide]: 0.01 to 0.05 µM; `Cc1cc(C2(O)CC3CC(c4nn(C)c(N)c4C(=O)Nc4ccc(F)c(Cl)c4)CC3C2)ccc1F` (stereo not shown) [Example 13, 5-Amino-N-(3-chloro-4-fluorophenyl)-3-(5-(4-fluoro-3-methylphenyl)-5-hydroxyoctahydropentalen-2-yl)-1-methyl-1H-pyrazole-4-carboxamide]: 0.01 to 0.05 µM.
Next, `Cn1nc(C2CC3CC(O)(c4ccccn4)CC3C2)c(C(=O)Nc2ccc(F)c(Cl)c2)c1N` (stereo not shown) [Example 14, 5-Amino-N-(3-chloro-4-fluorophenyl)-3-(5-hydroxy-5-(pyridin-2-yl)octahydropentalen-2-yl)-1-methyl-1H-pyrazole-4-carboxamide]: less than 0.01 µM; `Cn1nc(C2CC3CC(O)(c4cccnc4)CC3C2)c(C(=O)Nc2ccc(F)c(Cl)c2)c1N` (stereo not shown) [Example 15, 5-Amino-N-(3-chloro-4-fluorophenyl)-3-(5-hydroxy-5-(pyridin-3-yl)octahydropentalen-2-yl)-1-methyl-1H-pyrazole-4-carboxamide]: less than 0.01 µM; `Cn1nc(C2CC3CC(O)(c4ccncc4)CC3C2)c(C(=O)Nc2ccc(F)c(Cl)c2)c1N` (stereo not shown) [Example 16, 5-Amino-N-(3-chloro-4-fluorophenyl)-3-(5-hydroxy-5-(pyridin-4-yl)octahydropentalen-2-yl)-1-methyl-1H-pyrazole-4-carboxamide]: less than 0.01 µM.
As to `Cc1ccc(C2(O)CC3CC(c4nn(C)c(N)c4C(=O)Nc4ccc(F)c(Cl)c4)CC3C2)nc1` (stereo not shown) [Example 17, 5-Amino-N-(3-chloro-4-fluorophenyl)-3-(5-hydroxy-5-(5-methylpyridin-2-yl)octahydropentalen-2-yl)-1-methyl-1H-pyrazole-4-carboxamide], the concentration giving a half-maximal response (EC50) is less than 0.01 µM.
With `Cn1nc(C2CC3CC(O)(c4nccs4)CC3C2)c(C(=O)Nc2ccc(F)c(Cl)c2)c1N` (stereo not shown) [Example 18, 5-Amino-N-(3-chloro-4-fluorophenyl)-3-(5-hydroxy-5-(thiazol-2-yl)octahydropentalen-2-yl)-1-methyl-1H-pyrazole-4-carboxamide], the EC50 is less than 0.01 µM.
Next, `Cn1ccnc1C1(O)CC2CC(c3nn(C)c(N)c3C(=O)Nc3ccc(F)c(Cl)c3)CC2C1` (stereo not shown) [Example 19, 5-Amino-N-(3-chloro-4-fluorophenyl)-3-(5-hydroxy-5-(1-methyl-1H-imidazol-2-yl)octahydropentalen-2-yl)-1-methyl-1H-pyrazole-4-carboxamide]: less than 0.01 µM; `Cn1nc(C2CC3CC(O)(c4ncco4)CC3C2)c(C(=O)Nc2ccc(F)c(Cl)c2)c1N` (stereo not shown) [Example 21, 5-Amino-N-(3-chloro-4-fluorophenyl)-3-(5-hydroxy-5-(oxazol-2-yl)octahydropentalen-2-yl)-1-methyl-1H-pyrazole-4-carboxamide]: less than 0.01 µM; `C#CC1(O)CC2CC(c3nn(C)c(N)c3C(=O)Nc3ccc(F)c(Cl)c3)CC2C1` (stereo not shown) [Example 22, 5-Amino-N-(3-chloro-4-fluorophenyl)-3-(5-ethynyl-5-hydroxyoctahydropentalen-2-yl)-1-methyl-1H-pyrazole-4-carboxamide]: less than 0.01 µM.
In the case of `Cn1cc(C2(O)CC3CC(c4nn(C)c(N)c4C(=O)Nc4ccc(F)c(Cl)c4)CC3C2)nn1` (stereo not shown) [Example 23, 5-Amino-N-(3-chloro-4-fluorophenyl)-3-(5-hydroxy-5-(1-methyl-1H-1,2,3-triazol-4-yl)octahydropentalen-2-yl)-1-methyl-1H-pyrazole-4-carboxamide], the 50% effective concentration (EC50) was less than 0.01 µM.
Next, `Cn1nc(C2CC3CC(O)(c4c(Br)nnn4C)CC3C2)c(C(=O)Nc2ccc(F)c(Cl)c2)c1N` (stereo not shown) [Example 24, 5-Amino-3-(5-(4-bromo-1-methyl-1H-1,2,3-triazol-5-yl)-5-hydroxyoctahydropentalen-2-yl)-N-(3-chloro-4-fluorophenyl)-1-methyl-1H-pyrazole-4-carboxamide]: less than 0.01 µM; `Cn1nncc1C1(O)CC2CC(c3nn(C)c(N)c3C(=O)Nc3ccc(F)c(Cl)c3)CC2C1` (stereo not shown) [Example 25, 5-Amino-N-(3-chloro-4-fluorophenyl)-3-(5-hydroxy-5-(1-methyl-1H-1,2,3-triazol-5-yl)octahydropentalen-2-yl)-1-methyl-1H-pyrazole-4-carboxamide]: less than 0.01 µM; `Cn1nccc1C1(O)CC2CC(c3nn(C)c(N)c3C(=O)Nc3ccc(F)c(Cl)c3)CC2C1` (stereo not shown) [Example 26, 5-Amino-N-(3-chloro-4-fluorophenyl)-3-(5-hydroxy-5-(1-methyl-1H-pyrazol-5-yl)octahydropentalen-2-yl)-1-methyl-1H-pyrazole-4-carboxamide]: less than 0.01 µM.
For `Cn1nc(C2CC3CC(O)(c4c[nH]cn4)CC3C2)c(C(=O)Nc2ccc(F)c(Cl)c2)c1N` (stereo not shown) [Example 27, 5-Amino-N-(3-chloro-4-fluorophenyl)-3-(5-hydroxy-5-(1H-imidazol-4-yl)octahydropentalen-2-yl)-1-methyl-1H-pyrazole-4-carboxamide], the concentration giving a half-maximal response (EC50) fell in the range of 0.01 to 0.05 µM.
Next, `Cn1nc(C2CC3CC(O)(c4cn[nH]c4)CC3C2)c(C(=O)Nc2ccc(F)c(Cl)c2)c1N` (stereo not shown) [Example 28, 5-Amino-N-(3-chloro-4-fluorophenyl)-3-(5-hydroxy-5-(1H-pyrazol-4-yl)octahydropentalen-2-yl)-1-methyl-1H-pyrazole-4-carboxamide]: 0.01 to 0.05 µM; `Cn1nc(C2CC3CC(F)(CC(F)F)CC3C2)c(C(=O)Nc2ccc(F)c(Cl)c2)c1N` (stereo not shown) [Example 29, 5-Amino-N-(3-chloro-4-fluorophenyl)-3-(5-(2,2-difluoroethyl)-5-fluorooctahydropentalen-2-yl)-1-methyl-1H-pyrazole-4-carboxamide]: 0.01 to 0.05 µM.
Consider `Cn1nc(C2CC3CC(O)(C(F)F)CC3C2)c(C(=O)Nc2ccc(F)c(Cl)c2)c1N` (stereo not shown) [Example 30, 5-Amino-N-(3-chloro-4-fluorophenyl)-3-(5-(difluoromethyl)-5-hydroxyoctahydropentalen-2-yl)-1-methyl-1H-pyrazole-4-carboxamide], for which the EC50 was 0.01 to 0.05 µM.
As to `Cn1nc(C2CC3CC(O)(C(F)(F)F)CC3C2)c(C(=O)Nc2ccc(F)c(Cl)c2)c1N` (stereo not shown) [Example 31, 5-Amino-N-(3-chloro-4-fluorophenyl)-3-(5-hydroxy-5-(trifluoromethyl)octahydropentalen-2-yl)-1-methyl-1H-pyrazole-4-carboxamide], the EC50 was 0.01 to 0.05 µM.
